Reference: paper PMC12624573, “The antigen presentation landscape of cytokine-stressed human pancreatic islets” (Cell reports, 2025)

Test system: CD8+ T cells from PBMC
Test: IFN-γ ELISpot, PBMC-derived in vitro expanded CD8+ T cell lines
Type: cell-based, human
Set-up: key to T cell recognition by PBMC from a T1D donor: E: T cell recognition by PBMC from a T1D donor was tested and verified; see Figure 5
Details: not given

Sequence | IFN-γ ELISpot response of expanded CD8+ T cells
TLDGSLHAV [peptide 79, 11] | Responses

Same assay, conditions: A2 Set Peptides; PBMC T cell lines; responding donors/donors tested

Sequence | T1D Donor T cell response | non-T1D Donor T cell response
AILETAPKEV [compound 129, 17] | 0/4 | 0/2
ALAEEVEQV [compound 87, 12] | 0/4 | 0/2
ALANHLIKV [compound 96, 13] | 2/4 | 0/2
ALAPAPPQV [compound 127, 16] | 0/4 | 0/2
ALDGPPIKV [compound 80, 11] | 1/5 | 0/2
ALKPLAAAL [compound 138, 18] | 0/4 | 0/2
ALLDQALSNA [compound 111, 15] | 0/4 | 0/2
ALLDVTPKAV [compound 140, 18] | 0/4 | 0/2
ALLETVNRL [compound 99, 13] | 0/5 | 0/2
ALMEAIHSA [compound 93, 13] | 1/4 | 0/2
ALYDNVEKL [compound 89, 12] | 0/4 | 0/2
AMFDQSQIQEF [compound 116, 15] | 1/4 | 0/2
AQIALQPAL [compound 131, 17] | 0/4 | 0/2
AQLENPAAV [compound 97, 13] | 0/4 | 0/2
AQTEVIATL [compound 94] | 0/5 | 0/2
ELNPKILAL [compound 100, 13] | 0/4 | 0/2
FIASKGVKLV [compound 86, 12] | 0/5 | 0/2
FLIRESETL [compound 109, 14] | 1/4 | 0/2
FLKEPALNEA [compound 124, 16] | 0/4 | 0/2
GLDDIKDLKV [peptide 112, 15] | 3/4 | 0/2
GLDRLNVTV [peptide 101, 14] | 4/4 | 0/2

Sequence | T1D Donor T cell response | non-T1D Donor T cell response
HLANIVERV [compound 141, 18] | 0/4 | 0/2
HLKALTSEL [compound 114, 15] | 0/5 | 0/2
HLMDQPLSV [compound 108, 14] | 0/4 | 0/2
HLTPSPVPV [compound 121] | 0/5 | 0/2
HQNQLLSSL [compound 143, 18] | 0/4 | 0/2
KLIQKNLAT [compound 130, 17] | 0/4 | 0/2
KLLDPEDVAVQL [compound 142, 18] | 0/4 | 0/2
KLQELNYNL [compound 132, 17] | 0/4 | 0/2
KLTENLVAL [compound 92, 12] | 0/5 | 0/2
KQFPEVIKY [compound 90, 12] | 0/4 | 0/2
KQMEQISQF [compound 137, 18] | 0/4 | 0/2
KVDEAVAVL [compound 83, 11] | 0/4 | 0/2
KVIEINPYL [compound 123, 16] | 0/5 | 0/2
LIQDRVAEV [compound 106, 14] | 1/5 | 0/2
LLDEEISRV [compound 84, 11] | 0/4 | 0/2
LLDVPTAAV [compound 81, 11] | 1/5 | 0/2
LLSDTVQHL [compound 136, 17] | 0/4 | 0/2
LQNPDLVSL [compound 119, 16] | 0/4 | 0/2
QLMAEKLQL [compound 115, 15] | 0/4 | 0/2
QLSDVAEKL [compound 128, 17] | 0/4 | 0/2
QQQQKIIAL [compound 91, 12] | 0/5 | 0/2

Sequence | T1D Donor T cell response | non-T1D Donor T cell response
RLDDLKMTV [compound 82, 11] | 1/5 | 0/2
RLQDELVTL [compound 110, 15] | 0/4 | 0/2
RLSDAQIYV [compound 103, 14] | 0/4 | 0/2
RLSDVQIYV [compound 102, 14] | 1/4 | 0/2
RLYDPTEGMVSV [compound 85, 12] | 0/4 | 0/2
RVAEVQQVL [compound 107, 14] | 0/5 | 0/2
RVIGTLEEV [compound 125, 16] | 0/4 | 0/2
RYLEQLHQL [compound 135, 17] | 0/4 | 0/2
SLAEGLRTV [compound 120, 16] | 0/4 | 0/2
SLIGHLQTL [compound 95, 13] | 1/4 | 0/2
SLLQGSPHL [compound 122, 16] | 0/4 | 0/2
TLDGSLHAV [peptide 79, 11] | 1/5 | 0/2
TLVEAIKQV [compound 113, 15] |  | 0/2
VIANEIEKV [compound 88, 12] | 0/5 | 0/2
VLAPRVLRA [compound 126, 16] | 0/4 | 0/2
VLHEGTNFV [compound 104, 14] | 0/4 | 0/2
YINEKNVAL [compound 105, 14] | 0/4 | 0/2
YLHSQVVSV [compound 139, 18] | 0/4 | 0/2
YLKHRLIVV [compound 134, 17] | 0/4 | 0/2

Same assay, conditions: HPAP-A2 Pool Peptides; PBMC T cell lines; responding donors/donors tested

Sequence | T1D Donor T cell response | non-T1D Donor T cell response
ALDGPPIKV [compound 164] | 0/4 | 0/4
ALKPLAAAL [compound 169] | 0/4 | 0/4
ALLETVNRL [compound 162] | 0/4 | 0/4
DVIEKIRYV [compound 159] | 0/4 | 0/4
FLIEEIERL [compound 161] | 0/4 | 0/4
FTNHFLVEL [compound 165] | 0/4 | 0/4
IIVDIFHGL [compound 170] | 0/4 | 0/4
KLLESFKI [compound 160] | 0/4 | 0/4
KQFPEVIKY [compound 157] | 0/5 | 0/4
KVIEINPYL [compound 166] | 0/4 | 0/4
NLKEAIETI [compound 163] | 0/4 | 0/4
RVVGTLHLL [compound 168] | 0/4 | 0/4
TAISRIYTV [compound 158] | 0/4 | 0/4
VLAFLVHEL [compound 156] | 1/5 | 0/4

Same assay, conditions: MHC-I peptides; superscript E on the peptide; F = verified with C1R-A2 cells

Sequence | T cell recognition by PBMC from a T1D donor
ALANHLIKV | ALANHLIKV ^ E
ALMEAIHSA | ALMEAIHSA ^ E
AMFDQSQIQEF | AMFDQSQIQEF ^E, F
GLDDIKDLKV | GLDDIKDLKV ^ E
GLDRLNVTV | GLDRLNVTV ^ E
RLDDLKMTV | RLDDLKMTV ^ E
RLSDVQIYV | RLSDVQIYV ^ E
RSAAVLALL | RSAAVLALL ^E,F
SLIGHLQTL | SLIGHLQTL ^ E
TLDGSLHAV | TLDGSLHAV ^ E

Same assay, conditions: PTM and unmodified native Pool Peptides (pool PTM 1), 9-mer peptides; PBMC T cell lines; responding donors/donors tested

Sequence | T1D Donor T cell response | non-T1D Donor T cell response
QADFAIEAL [compound 150, non-modified native peptide, pool PTM A2] | 0/4 | 0/3

Same assay, conditions: SEC (Secretory) A2 Peptides Set; PBMC T cell lines; responding donors/donors tested

Sequence | T1D Donor T cell response
GSHLVEALY [compound 172, secretory hormone eluted peptide, pool SEC A2] | 0/4
KEFIAWLV [compound 174, secretory hormone eluted peptide, pool SEC A2] | 0/4

Same assay, conditions: T1D donors, PBMC-derived lines (Figure 5J)

Sequence | Number of donors whose CD8 T cells recognized the peptide (IFN-γ ELISpot)
GLDDIKDLKV [peptide 112, 15] | three of the donors
GLDRLNVTV [peptide 101, 14] | all four donors
